Laboratory results reported in patent US10660877B2 (BRISTOL-MYERS SQUIBB COMPANY, priority 2016, dated 2020).
Read-outs that look alike come from different tables or passages of the source.

Tests used:
human TLR8 = human TLR8 (Homo sapiens (Human), UniProt Q9NR97); experiment: TLR8 inhibition reporter assay (HEK-Blue cells, SEAP reporter, R848 stimulation);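 note: compounds tested from 0.05 nM to 50 µM, 22 h at 37 °C, SEAP measured with HEK-Blue Detection, inhibition relative to agonist plus DMSO versus a known inhibitor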
human TLR9 = human TLR9 (Homo sapiens (Human), UniProt Q9NR96); experiment: TLR9 inhibition reporter assay (HEK-Blue cells, SEAP reporter, ODN2006 stimulation);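 note: compounds tested over 0.05 nM to 50 µM, 22 h incubation, inhibition taken as SEAP signal drop from agonist plus DMSO wells toward a known inhibitor control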
human TLR7 = human TLR7 (Homo sapiens (Human), UniProt Q9NYK1); experiment: TLR7 inhibition reporter assay (HEK-Blue cells, SEAP reporter, gardiquimod stimulation); type: cell-based
[1] = read-out: TLR8 IC50, HEK-Blue cells overexpressing human TLR8, R848 15.9 μM
[2] = read-out: TLR9 IC50, HEK-Blue cells overexpressing human TLR9, ODN2006 5 nM
[3] = HEK-Blue cells overexpressing human TLR7, gardiquimod 7.5 μM
[4] = read-out: TLR8 IC50, HEK-Blue cells, R848 15.9 μM
[5] = read-out: TLR9 IC50, HEK-Blue cells, ODN2006 5 nM
[6] = HEK-Blue cells, gardiquimod 7.5 μM

Chain of human TLR8 (Q9NR97 27-1041): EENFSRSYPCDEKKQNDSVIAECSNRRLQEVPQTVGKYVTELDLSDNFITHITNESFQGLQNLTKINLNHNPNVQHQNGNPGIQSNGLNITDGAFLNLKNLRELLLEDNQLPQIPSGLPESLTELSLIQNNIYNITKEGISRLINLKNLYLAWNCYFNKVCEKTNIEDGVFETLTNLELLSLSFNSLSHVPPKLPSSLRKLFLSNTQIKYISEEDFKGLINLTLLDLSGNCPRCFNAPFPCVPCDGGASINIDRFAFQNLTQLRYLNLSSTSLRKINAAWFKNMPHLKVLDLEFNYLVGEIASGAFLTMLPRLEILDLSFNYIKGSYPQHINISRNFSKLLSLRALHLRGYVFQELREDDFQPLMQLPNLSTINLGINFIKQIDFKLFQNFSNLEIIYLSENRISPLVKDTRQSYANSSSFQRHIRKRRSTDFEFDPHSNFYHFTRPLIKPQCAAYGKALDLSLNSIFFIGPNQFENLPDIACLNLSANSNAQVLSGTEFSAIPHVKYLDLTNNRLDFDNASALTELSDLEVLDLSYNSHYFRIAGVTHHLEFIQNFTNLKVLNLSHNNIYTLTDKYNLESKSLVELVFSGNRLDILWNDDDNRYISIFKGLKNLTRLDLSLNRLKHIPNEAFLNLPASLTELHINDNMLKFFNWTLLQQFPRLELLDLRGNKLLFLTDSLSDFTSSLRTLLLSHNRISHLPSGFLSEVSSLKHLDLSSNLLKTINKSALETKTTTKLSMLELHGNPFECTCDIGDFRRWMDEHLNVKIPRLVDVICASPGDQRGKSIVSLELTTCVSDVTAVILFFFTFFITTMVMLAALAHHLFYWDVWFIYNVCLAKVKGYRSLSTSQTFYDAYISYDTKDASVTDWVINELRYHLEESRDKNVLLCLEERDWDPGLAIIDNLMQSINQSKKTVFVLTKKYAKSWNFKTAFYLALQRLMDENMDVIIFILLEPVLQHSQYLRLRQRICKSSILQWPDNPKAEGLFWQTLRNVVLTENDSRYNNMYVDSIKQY
Chain of human TLR9 (Q9NR96 26-1032): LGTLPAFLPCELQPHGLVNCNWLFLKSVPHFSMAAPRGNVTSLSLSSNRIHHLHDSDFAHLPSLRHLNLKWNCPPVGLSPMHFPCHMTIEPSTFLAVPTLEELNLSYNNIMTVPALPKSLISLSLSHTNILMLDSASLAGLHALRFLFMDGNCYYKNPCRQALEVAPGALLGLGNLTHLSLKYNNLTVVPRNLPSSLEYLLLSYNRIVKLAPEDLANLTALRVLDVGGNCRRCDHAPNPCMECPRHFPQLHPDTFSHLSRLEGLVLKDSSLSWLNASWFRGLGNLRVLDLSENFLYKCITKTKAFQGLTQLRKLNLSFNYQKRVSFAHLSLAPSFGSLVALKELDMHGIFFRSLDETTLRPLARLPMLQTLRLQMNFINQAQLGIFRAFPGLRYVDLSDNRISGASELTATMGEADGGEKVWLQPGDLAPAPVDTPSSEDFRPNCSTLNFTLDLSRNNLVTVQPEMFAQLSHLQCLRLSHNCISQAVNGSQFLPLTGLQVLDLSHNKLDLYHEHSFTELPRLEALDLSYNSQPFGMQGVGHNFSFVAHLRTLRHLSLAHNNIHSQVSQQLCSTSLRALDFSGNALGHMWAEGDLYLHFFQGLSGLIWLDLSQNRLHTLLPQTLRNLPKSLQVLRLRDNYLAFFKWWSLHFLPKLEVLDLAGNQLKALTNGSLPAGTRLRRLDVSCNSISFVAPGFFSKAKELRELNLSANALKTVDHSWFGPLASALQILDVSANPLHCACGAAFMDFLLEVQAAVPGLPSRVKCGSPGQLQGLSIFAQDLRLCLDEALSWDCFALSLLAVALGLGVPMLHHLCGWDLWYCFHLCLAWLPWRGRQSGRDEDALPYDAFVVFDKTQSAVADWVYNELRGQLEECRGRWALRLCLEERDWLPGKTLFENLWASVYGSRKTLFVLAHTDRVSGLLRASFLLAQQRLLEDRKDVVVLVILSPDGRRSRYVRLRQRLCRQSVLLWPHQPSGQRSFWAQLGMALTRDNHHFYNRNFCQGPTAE
Chain of human TLR7 (Q9NYK1 27-1049): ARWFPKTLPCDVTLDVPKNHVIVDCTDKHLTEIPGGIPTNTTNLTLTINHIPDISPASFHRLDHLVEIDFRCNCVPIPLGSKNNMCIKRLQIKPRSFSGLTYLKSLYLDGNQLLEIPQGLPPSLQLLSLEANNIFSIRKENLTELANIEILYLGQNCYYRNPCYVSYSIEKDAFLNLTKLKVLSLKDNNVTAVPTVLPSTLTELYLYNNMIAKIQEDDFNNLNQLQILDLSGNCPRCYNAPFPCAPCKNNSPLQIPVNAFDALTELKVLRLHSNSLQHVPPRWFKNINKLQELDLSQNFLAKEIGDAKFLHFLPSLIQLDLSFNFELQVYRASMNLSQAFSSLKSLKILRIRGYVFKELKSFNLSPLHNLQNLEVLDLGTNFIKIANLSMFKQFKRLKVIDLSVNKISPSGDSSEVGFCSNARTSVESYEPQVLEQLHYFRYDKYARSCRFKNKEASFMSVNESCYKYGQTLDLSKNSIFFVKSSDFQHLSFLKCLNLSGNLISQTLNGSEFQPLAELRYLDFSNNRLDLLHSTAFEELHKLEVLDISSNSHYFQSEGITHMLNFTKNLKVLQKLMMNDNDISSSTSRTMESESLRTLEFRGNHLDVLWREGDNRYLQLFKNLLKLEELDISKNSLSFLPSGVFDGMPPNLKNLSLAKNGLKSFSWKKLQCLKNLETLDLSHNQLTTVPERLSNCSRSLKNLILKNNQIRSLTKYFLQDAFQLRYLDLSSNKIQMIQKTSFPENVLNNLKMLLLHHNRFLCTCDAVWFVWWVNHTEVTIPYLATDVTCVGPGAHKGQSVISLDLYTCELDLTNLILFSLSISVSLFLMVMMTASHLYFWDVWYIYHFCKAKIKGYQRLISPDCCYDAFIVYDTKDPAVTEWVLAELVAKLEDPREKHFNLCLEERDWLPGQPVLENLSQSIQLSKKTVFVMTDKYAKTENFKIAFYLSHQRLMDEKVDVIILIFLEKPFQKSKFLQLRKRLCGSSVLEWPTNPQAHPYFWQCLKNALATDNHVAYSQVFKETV

`Cc1nccc(-c2[nH]c3ccc(C4CCN(C)CC4)cc3c2C(C)C)c1C` [Example 637, 2-(2,3-dimethylpyridin-4-yl)-3-isopropyl-5-(1-methylpiperidin-4-yl)-1H-indole] was tested, and the IC50 (human TLR8; [1]) was 42.1 nM, the IC50 (human TLR9; [2]) was 1540 nM and the IC50 (human TLR7; [3]) was 36.4 nM.

`Cc1cc(-c2[nH]c3ccc(C4CCN(CC(C)(C)O)CC4)cc3c2C(C)C)c(C)cn1` [Example 851, 1-(4-(2-(2,5-dimethylpyridin-4-yl)-3-isopropyl-1H-indol-5-yl)piperidin-1-yl)-2-methylpropan-2-ol] gave an IC50 (human TLR8; [4]) of 0.7 nM, an IC50 (human TLR9; [5]) of 1690 nM and an IC50 (human TLR7; [6]) of 10.4 nM.

Compound `Cc1cc(-c2[nH]c3cc(F)c(C4CCN(CC(=O)N(C)C)CC4)cc3c2C(C)C)c(F)cn1` [Example 836, 2-(4-(6-fluoro-2-(5-fluoro-2-methylpyridin-4-yl)-3-isopropyl-1H-indol-5-yl)piperidin-1-yl)-N,N-dimethylacetamide] has an IC50 (human TLR8; [4]) of 11.8 nM, an IC50 (human TLR9; [5]) of 4730 nM and an IC50 (human TLR7; [6]) of 3.9 nM.

`Cc1cc(-c2[nH]c3ccc(C4CCN(C(=O)c5c(C)noc5C)CC4)cc3c2C(C)C)cc(C)n1` [Example 119, (3,5-dimethylisoxazol-4-yl)(4-(2-(2,6-dimethylpyridin-4-yl)-3-isopropyl-1H-indol-5-yl)piperidin-1-yl) methanone] showed an IC50 (human TLR8; [1]) of 96.1 nM, an IC50 (human TLR9; [2]) of 5440 nM and an IC50 (human TLR7; [3]) of 6.9 nM.

With `CCCS(=O)(=O)N1CCC(c2ccc3[nH]c(-c4ccnc(C)c4)c(C(C)C)c3c2)CC1` [Example 545, 3-isopropyl-2-(2-methylpyridin-4-yl)-5-(1-(propylsulfonyl)piperidin-4-yl)-1H-indole] the IC50 (human TLR8; [1]) was 266 nM, the IC50 (human TLR9; [2]) was over 50000 nM and the IC50 (human TLR7; [3]) was 102 nM.

For `Cc1cc(-c2[nH]c3ccc(C4CCN(C5CCN(C(C)C)CC5)CC4)cc3c2C)c(C)cn1` [Example 814, 2-(2,5-dimethylpyridin-4-yl)-5-(1′-isopropyl-[1,4′-bipiperidin]-4-yl)-3-methyl-1H-indole], the IC50 (human TLR8; [4]) was 2.4 nM, the IC50 (human TLR9; [5]) was 101 nM and the IC50 (human TLR7; [6]) was 50.7 nM.

`Cc1cc(-c2[nH]c3ccc(C4CCN(C(=O)C5CCOC(C(C)C)C5)CC4)cc3c2C(C)C)ccn1` (stereo not drawn) [Example 598, (4-(3-isopropyl-2-(2-methylpyridin-4-yl)-1H-indol-5-yl)piperidin-1-yl)(2-isopropyltetrahydro-2H-pyran-4-yl)methanone] gave an IC50 (human TLR8; [1]) of 374 nM, an IC50 (human TLR9; [2]) of 9940 nM and an IC50 (human TLR7; [3]) of 99.6 nM.

With `Cc1cc(-c2[nH]c3ccc(C4CCN(CC(=O)N5CC(O)C5)CC4)cc3c2C(C)C)cc(C)n1` [Example 229, 2-(4-(2-(2,6-dimethylpyridin-4-yl)-3-isopropyl-1H-indol-5-yl)piperidin-1-yl)-1-(3-hydroxyazetidin-1-yl)ethan-1-one] the IC50 (human TLR8; TLR8 IC50, HEK-Blue cells overexpressing human TLR8, R848 15.9 μM) was 7.1 nM, the IC50 (human TLR9; TLR9 IC50, HEK-Blue cells overexpressing human TLR9, ODN2006 5 nM) was 165 nM and the IC50 (human TLR7; [3]) was 6.4 nM.

For `Cc1cc(-c2[nH]c3ccc(C4CCN(CC(=O)NCCO)CC4)cc3c2C(C)C)cc(C)n1` [Example 222, 2-(4-(2-(2,6-dimethylpyridin-4-yl)-3-isopropyl-1H-indol-5-yl)piperidin-1-yl)-N-(2-hydroxyethyl)acetamide], the IC50 (human TLR8; [1]) was 15.9 nM, the IC50 (human TLR9; [2]) was 2240 nM and the IC50 (human TLR7; [3]) was 2.7 nM.

With `Cc1cc(-c2[nH]c3ccc(C4CCN(CCO)CC4)cc3c2C(C)C)cc(C)n1` [Example 329, 2-(4-(2-(2,6-dimethylpyridin-4-yl)-3-isopropyl-1H-indol-5-yl)piperidin-1-yl)ethan-1-ol] the IC50 (human TLR8; [1]) was 2.8 nM, the IC50 (human TLR9; [2]) was 437 nM and the IC50 (human TLR7; [3]) was 2.1 nM.

Work on `Cc1cc(-c2[nH]c3ccc(C4CCN(C(=O)CN5C[C@H](C)C[C@@H]5CO)CC4)cc3c2C(C)C)cc(C)n1` [Example 410, 1-(4-(2-(2,6-dimethylpyridin-4-yl)-3-isopropyl-1H-indol-5-yl)piperidin-1-yl)-2-((2R,4R)-2-(hydroxymethyl)-4-methylpyrrolidin-1-yl)ethan-1-one] yielded an IC50 (human TLR8; [1]) of 27 nM, an IC50 (human TLR9; [2]) of 481 nM and an IC50 (human TLR7; [3]) of 4.5 nM.

Work on `CNC(=O)CN1CCC(c2ccc3[nH]c(-c4cc(C)ncc4F)c(C(C)C)c3c2)CC1` [Example 654, 2-(4-(2-(5-fluoro-2-methylpyridin-4-yl)-3-isopropyl-1H-indol-5-yl)piperidin-1-yl)-N-methylacetamide] yielded an IC50 (human TLR8; [1]) of 3.2 nM, an IC50 (human TLR9; [2]) of 3140 nM and an IC50 (human TLR7; [3]) of 2.8 nM.

With `Cc1cc(-c2[nH]c3ccc(C4CCNCC4)cc3c2C(C)C)c(F)cn1` [Example 16, 2-(5-fluoro-2-methylpyridin-4-yl)-3-isopropyl-5-(piperidin-4-yl)-1H-indole] the IC50 (human TLR8; [1]) was 1.4 nM, the IC50 (human TLR9; [2]) was 2480 nM and the IC50 (human TLR7; [3]) was 1.5 nM.

`Cc1cc(-c2[nH]c3ccc(C4CCN(S(=O)(=O)Cc5ccccc5)CC4)cc3c2C(C)C)ccn1` [Example 556, 5-(1-(benzylsulfonyl)piperidin-4-yl)-3-isopropyl-2-(2-methylpyridin-4-yl)-1H-indole] was tested, and the IC50 (human TLR8; [1]) was 731 nM, the IC50 (human TLR9; [2]) was over 50000 nM and the IC50 (human TLR7; [3]) was 220 nM.

`Cc1cc(-c2[nH]c3ccc(C4CCN(CC5CC5)CC4)cc3c2C(C)C)c(C)cn1` [Example 871, 5-(1-(cyclopropylmethyl)piperidin-4-yl)-2-(2,5-dimethylpyridin-4-yl)-3-isopropyl-1H-indole] was tested, and the IC50 (human TLR8; [4]) was 3.2 nM, the IC50 (human TLR9; [5]) was 1840 nM and the IC50 (human TLR7; [6]) was 10 nM.

`Cc1cc(-c2[nH]c3ccc(C4CCN(C(=O)c5ccon5)CC4)cc3c2C(C)C)cc(C)n1` [Example 203, (4-(2-(2,6-dimethylpyridin-4-yl)-3-isopropyl-1H-indol-5-yl)piperidin-1-yl)(isoxazol-3-yl)methanone] gave an IC50 (human TLR8; [1]) of 113 nM, an IC50 (human TLR9; [2]) of 3180 nM and an IC50 (human TLR7; [3]) of 2 nM.

`Cc1cc(-c2[nH]c3ccc(C4CCN(C(=O)Cn5ccccc5=O)CC4)cc3c2C(C)C)cc(C)n1` [Example 157, 1-(2-(4-(2-(2,6-dimethylpyridin-4-yl)-3-isopropyl-1H-indol-5-yl)piperidin-1-yl)-2-oxoethyl)pyridin-2(1H)-one] gave an IC50 (human TLR8; [1]) of 65.7 nM, an IC50 (human TLR9; [2]) of 2500 nM and an IC50 (human TLR7; [3]) of 16.5 nM.

`Cc1cc(-c2[nH]c3ccc(C4CCN(CC(=O)N5CCC5)CC4)cc3c2C(C)C)cc(C)n1` [Example 227, 1-(azetidin-1-yl)-2-(4-(2-(2,6-dimethylpyridin-4-yl)-3-isopropyl-1H-indol-5-yl)piperidin-1-yl)ethan-1-one] showed an IC50 (human TLR8; [1]) of 9.1 nM, an IC50 (human TLR9; [2]) of 1500 nM and an IC50 (human TLR7; [3]) of 3.8 nM.

Compound `Cc1cc(-c2[nH]c3ccc(C4CCN(CC(=O)N(C)C)CC4)cc3c2C(C)C)c(F)c(C)n1` [Example 645, 2-(4-(2-(3-fluoro-2,6-dimethylpyridin-4-yl)-3-isopropyl-1H-indol-5-yl)piperidin-1-yl)-N,N-dimethylacetamide] has an IC50 (human TLR8; [1]) of 5.8 nM, an IC50 (human TLR9; [2]) of 7430 nM and an IC50 (human TLR7; [3]) of 1.7 nM.

`CCc1c(-c2ccnc(OC)c2)[nH]c2ccc(C3CCNCC3)cc12` [Example 61, 3-ethyl-2-(2-methoxypyridin-4-yl)-5-(piperidin-4-yl)-1H-indole] gave an IC50 (human TLR8; [1]) of 58.8 nM, an IC50 (human TLR9; [2]) of 2370 nM and an IC50 (human TLR7; [3]) of 207 nM.

In the case of `Cc1cc(-c2[nH]c3ccc(C4CC(C)(C)N(C)C(C)(C)C4)cc3c2C(C)C)cc(C)n1` [Example 496, 2-(2,6-dimethylpyridin-4-yl)-3-isopropyl-5-(1,2,2,6,6-pentamethylpiperidin-4-yl)-1H-indole], the IC50 (human TLR8; [1]) is reported as 9590 nM, the IC50 (human TLR9; [2]) is reported as over 50000 nM and the IC50 (human TLR7; [3]) is reported as 7190 nM.

Compound `COc1nccc(-c2[nH]c3ccc(C4CCN(C5CCN(CC(C)C)CC5)CC4)cc3c2C)c1OC` [Example 799, 2-(2,3-dimethoxypyridin-4-yl)-5-(1′-isobutyl-[1,4′-bipiperidin]-4-yl)-3-methyl-1H-indole] has an IC50 (human TLR8; [1]) of 360 nM, an IC50 (human TLR9; [2]) of 180 nM and an IC50 (human TLR7; [3]) of 1670 nM.

Compound `Cc1cc(-c2[nH]c3ccc(C4CCNCC4)cc3c2C(C)(C)C)cc(C)n1` [Example 96, 3-(tert-butyl)-2-(2,6-dimethylpyridin-4-yl)-5-(piperidin-4-yl)-1H-indole] has an IC50 (human TLR8; [1]) of 23.3 nM, an IC50 (human TLR9; [2]) of 1320 nM and an IC50 (human TLR7; [3]) of 9.1 nM.

For `Cc1cc(-c2[nH]c3ccc(C4CCN(CC(=O)NC5CCOC5)CC4)cc3c2C(C)C)cc(C)n1` (stereo not drawn) [Example 282, 2-(4-(2-(2,6-dimethylpyridin-4-yl)-3-isopropyl-1H-indol-5-yl)piperidin-1-yl)-N-(tetrahydrofuran-3-yl)acetamide], the IC50 (human TLR8; [1]) was 9 nM, the IC50 (human TLR9; [2]) was 2700 nM and the IC50 (human TLR7; [3]) was 3.7 nM.

`Cc1cc(-c2[nH]c3ccc(C4CCN(CCC#N)CC4)cc3c2C(C)C)cc(C)n1` [Example 315, 3-(4-(2-(2,6-dimethylpyridin-4-yl)-3-isopropyl-1H-indol-5-yl)piperidin-1-yl)propanenitrile] was tested, and the IC50 (human TLR8; [1]) was 9 nM, the IC50 (human TLR9; [2]) was 1060 nM and the IC50 (human TLR7; [3]) was 6.6 nM.

`Cc1cc(-c2[nH]c3ccc(C4CCN(CC(=O)NCC(C)C)CC4)cc3c2C(C)C)cc(C)n1` [Example 221, 2-(4-(2-(2,6-dimethylpyridin-4-yl)-3-isopropyl-1H-indol-5-yl)piperidin-1-yl)-N-isobutylacetamide] gave an IC50 (human TLR8; [1]) of 17.2 nM, an IC50 (human TLR9; [2]) of 2010 nM and an IC50 (human TLR7; [3]) of 6.8 nM.

`CCC(C)NC(=O)CN1CCC(c2ccc3[nH]c(-c4cc(C)nc(C)c4)c(C(C)C)c3c2)CC1` (stereo not drawn) [Example 234, N-(sec-butyl)-2-(4-(2-(2,6-dimethylpyridin-4-yl)-3-isopropyl-1H-indol-5-yl)piperidin-1-yl)acetamide] gave an IC50 (human TLR8; [1]) of 24.9 nM, an IC50 (human TLR9; [2]) of 1720 nM and an IC50 (human TLR7; [3]) of 11.4 nM.

Compound `CCc1c(-c2cc(C)nc(C)c2)[nH]c2ccc(C3CCN(C(=O)CNC)CC3)cc12` [Example 529, 1-(4-(2-(2,6-dimethylpyridin-4-yl)-3-ethyl-1H-indol-5-yl)piperidin-1-yl)-2-(methylamino)ethan-1-one] has an IC50 (human TLR8; [1]) of 28.2 nM, an IC50 (human TLR9; [2]) of 119 nM and an IC50 (human TLR7; [3]) of 6.6 nM.
